Test results from US9169252B2 (BRISTOL-MYERS SQUIBB COMPANY, priority 2014, dated 2015).
Read-outs that look alike come from different tables or passages of the source.

What was measured:
[1] = system: TLR2 induced IL-6 in peripheral blood mononuclear cells (PBMCs); assay: PBMC TLR2 Induced IL-6 Assay; type: cell-based, human; conditions: IL-6 by ELISA; for EC50: read-out: Cell EC50; for IC50: read-out: Cell IC50
How it was run: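 Lipoteichoic acid at 10 µg/ml served as TLR2 stimulus for 5 hours, following a 30-minute compound pretreatment at 37° C. Cells were Ficoll-isolated human PBMCs, 250000 cells/well, cultured in RPMI plus 10% heat-inactivated FCS.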

IRAK4 = IRAK4 (Homo sapiens (Human), UniProt Q9NWZ3); assay: IRAK4 Inhibition Assay; type: biochemical; conditions: ATP 500 μM, read-out: IRAK4 IC50
How it was run: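 Mobility-shift readout: fluorescent substrate and phosphoproduct resolved electrophoretically on Caliper LabChip 3000 after EDTA quench (35 mM). Enzyme reaction of IRAK4, substrates and test compound ran 60 min at room temperature.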

[2] = Homo sapiens, PBMC, PBMC TLR2 Induced IL-6 Assay, lipoteichoic acid stimulation
[3] = Homo sapiens, PBMC, human PBMCs, lipoteichoic acid stimulated

Sequence of IRAK4 (Q9NWZ3 whole entry, species assumed): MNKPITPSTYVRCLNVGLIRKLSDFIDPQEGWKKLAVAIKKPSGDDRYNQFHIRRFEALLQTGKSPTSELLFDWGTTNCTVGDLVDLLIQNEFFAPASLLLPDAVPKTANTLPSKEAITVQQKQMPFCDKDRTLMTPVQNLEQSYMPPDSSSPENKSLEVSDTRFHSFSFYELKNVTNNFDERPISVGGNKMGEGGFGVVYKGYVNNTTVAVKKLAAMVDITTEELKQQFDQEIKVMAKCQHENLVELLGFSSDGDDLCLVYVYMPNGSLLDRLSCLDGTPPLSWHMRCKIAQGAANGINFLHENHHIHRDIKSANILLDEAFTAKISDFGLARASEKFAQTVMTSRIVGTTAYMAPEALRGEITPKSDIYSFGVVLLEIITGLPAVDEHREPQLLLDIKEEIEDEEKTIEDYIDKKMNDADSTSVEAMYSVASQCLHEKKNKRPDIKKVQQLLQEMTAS

| SMILES | EC50 [1, 2] | IC50 (IRAK4; IRAK4 Inhibition Assay) | IC50 [1, 2] | also measured |
| --- | --- | --- | --- | --- |
| CC(C)Nc1cc(-n2ccc3cc(C#N)cnc32)ncc1C(=O)NCCCOC(C)C [Example 47, 6-(5-cyano-1H-pyrrolo[2,3-b]pyridin-1-yl)-N-(3-isopropoxypropyl)-4-(isopropylamino) nicotinamide] | 173 nM | 5.6 nM | – | – |
| CC(C)Nc1cc(-n2ncc3cc(C#N)cnc32)ncc1C(=O)NCC(F)=C1CCOCC1 [Example 294] | – | 13.4 nM | 292 nM | – |
| COCCn1cc(Nc2cc(-n3ncc4cc(C#N)cnc43)ncc2C(=O)NC[C@@H](F)C(C)(C)O)cn1 [Example 363] | – | 3.2 nM | 459 nM | – |
| CC(C)(O)[C@H](F)CNC(=O)c1cnc(-n2ccc3cc(Cl)cnc32)cc1NC1CCC1 [Example 31, (R)-6-(5-chloro-1H-pyrrolo[2,3-b]pyridin-1-yl)-4-(cyclobutylamino)-N-(2-fluoro-3-hydroxy-3-methylbutyl)nicotinamide] | 367 nM | 3.4 nM | 1080 nM | – |
| CC(C)(O)[C@H](F)CNC(=O)c1cnc(-n2ncc3cc(C#N)cnc32)cc1N[C@H]1CC[C@H](NC2COC2)CC1 [Example 622] | – | – | – | IC50 [1, 3]: 132 nM; IC50 (IRAK4; IRAK4 0.6 nM): 5.2 nM |
| C[C@@H](CO)Nc1cc(-n2ncc3cc(C#N)cnc32)ncc1C(=O)NCCC1CC1 [Example 318] | – | 7.9 nM | 188 nM | – |
| CC(C)Nc1cc(-n2ncc3cc(C#N)cnc32)ncc1C(=O)NCC(F)C1(O)COC1 (centres unmarked) [Example 248] | – | 3.6 nM | – | IC50 ([1]; PBMC TLR2 Induced IL-6 Assay, lipoteichoic acid stimulation): 554 nM |
| CC(C)(O)[C@H](F)CNC(=O)c1cnc(-n2ncc3cc(C#N)cnc32)cc1Nc1cnn(CC(F)(F)F)c1 [Example 353] | – | 1.7 nM | 18 nM | – |
| CC(C)Nc1cc(-n2ncc3cc(C#N)cnc32)ncc1C(=O)Nc1ccc(N2CCNCC2)nc1 [Example 227] | 55 nM | 5.3 nM | – | – |
| CC(C)Nc1cc(-n2ncc3cc(F)cnc32)ncc1C(=O)NC[C@@H](F)C(C)(C)O [Example 157, (R)-6-(5-fluoro-1H-pyrazolo[3,4-b]pyridin-1-yl)-N-(2-fluoro-3-hydroxy-3-methylbutyl)-4-(isopropylamino) nicotinamide] | 97 nM | 5.3 nM | – | – |
| CC(C)CC(C)Nc1cc(-n2ccc3cc(C#N)cnc32)ncc1C(=O)NC[C@@H](F)C(C)(C)O (single isomer, unassigned) [Example 454] | – | – | – | EC50 [1, 3]: 757 nM; IC50 [1, 3]: 289 nM; IC50 (IRAK4; IRAK4 0.6 nM): 5.9 nM |
| CC(C)Nc1cc(-n2ncc3cc(C#N)cnc32)ncc1C(=O)Nc1cnn(C2CN(S(C)(=O)=O)C2)c1 [Example 281] | – | 7.8 nM | 255 nM | – |
| COC(=O)CCNC(=O)c1cnc(-n2ncc3cc(C#N)cnc32)cc1NC(C)C [Example 207] | 227 nM | 10.3 nM | – | – |
| CC(C)(O)[C@H](F)CNC(=O)c1cnc(-n2ccc3cc(C#N)cnc32)cc1NC12CC3CC(CC(C3)C1)C2 [Example 13, 4-((1s,3S)-adamantan-1-ylamino)-6-(5-cyano-1H-pyrrolo[2,3-b]pyridin-1-yl)-N—((R)-2-fluoro-3-hydroxy-3-methylbutyl)nicotinamide] | 346 nM | 12 nM | – | – |
| N#Cc1cc2cnn(-c3cc(NC4COC4)c(C(=O)NCCC4CC4)cn3)c2nc1N [Example 558] | – | – | – | IC50 [1, 3]: 615 nM; IC50 (IRAK4; IRAK4 0.6 nM): 6.1 nM |
| CC(C)(O)[C@H](F)CNC(=O)c1cnc(-n2ccc3cc(C#N)cnc32)cc1N[C@@H]1CCNC1 [Example 466] | – | – | – | EC50 [1, 3]: 792 nM; IC50 [1, 3]: 130 nM; IC50 (IRAK4; IRAK4 0.6 nM): 13.9 nM |
| CC(C)(O)[C@H](F)CNC(=O)c1cnc(-n2ccc3cc(C#N)cnc32)cc1Nc1cccc(O)c1 [Example 46, (R)-6-(5-cyano-1H-pyrrolo[2,3-b]pyridin-1-yl)-N-(2-fluoro-3-hydroxy-3-methylbutyl)-4-((3-hydroxyphenyl)amino)nicotinamide] | 23 nM | 2.2 nM | – | – |
| CC(C)(O)[C@H](F)CNC(=O)c1cnc(-n2ncc3cc(C#N)c(N)nc32)cc1NC1CC1 [Example 631] | – | – | – | IC50 [1, 3]: 66 nM; IC50 (IRAK4; IRAK4 0.6 nM): 3.4 nM |
| CC(C)Nc1cc(-n2ncc3cc(C#N)c(N)nc32)ncc1C(=O)N[C@H](C)C1CC1 [Example 323] | – | 17.3 nM | 612 nM | – |
